This is an account of results in ChEMBL document CHEMBL5620351, “Advancing beyond reverse transcriptase inhibitors: The new era of hepatitis B polymerase inhibitors” (Eur J Med Chem, 2023).

Data set [1] has as its system Hepatitis B virus. The data set can be described thus: Antiviral activity against HBV infected in human HepDES19 cells assessed as reduction in HBV replication. In kind it is functional, organism-based.
For data set [2], the system named is Hepatitis B virus. Description: Antiviral activity against HBV infected in human HepDES19 cells assessed as inhibition of HBV replication by qPCR analysis. The format is functional, organism-based. In general terms: Real-time PCR tracks product formation cycle by cycle.
Data set [3] concerns Hepatitis B virus. The data set can be described thus: Antiviral activity against HBV infected in human HepDES19 cells assessed as inhibition of extracellular HBV DNA by qPCR analysis. In kind it is functional, organism-based.
A short description of data set [4]: Cytotoxicity against human HepDES19 cells assessed as reduction in cell viability incubated for 1 hr by MTS assay. In kind it is functional.
Data set [5] is described as follows: Cytotoxicity against human HEK293 cells assessed as reduction in cell viability incubated for 1 hr by MTS assay. The format is toxicity, cell-based.
Data set [6] in a line: Cytotoxicity against human LX2 cells assessed as reduction in cell viability incubated for 1 hr by MTS assay. The format is toxicity, cell-based. Conditions: LX-2 cells.
The subject of data set [7] is Hepatitis B virus. Description: Antiviral activity against HBV infected in human HepG2 2.2.15 cells assessed as reduction on HBsAg level incubated for 5 days. The format is functional. Conditions: time 5 day. Details: concentration or dose not given beside the values.
In data set [8] the test system is HepG2. Description: Cytotoxicity against human HepG2 cells assessed as cell viability incubated for 12 days by WST-1 assay. In kind it is functional. Conditions: HepG2, 288 h, time 12 day.
Data set [9] has as its system HepG2. Description: Cytotoxicity against human HepG2 cells assessed as reduction in cell viability by MTS assay. The format is functional.
The subject of data set [10] is HepG2. The data set can be described thus: Cytotoxicity against human HepG2 cells assessed as reduction in cell viability in presence of lamivudine by MTS assay. The format is functional. (Tetrazolium dyes change colour on reduction, which living cells bring about.)
Data set [11] is described as follows: Inhibition of HBV RNA polymerase. Also on record: species or system Hepatitis B virus.
The subject of data set [12] is Hepatitis B virus. The data set can be described thus: Antiviral activity against HBV transfected in human HB611 cells assessed as reduction of HBV DNA replication incubated for 5 days by q-PCR analysis. Conditions: HB611, 120 h. In kind it is functional, organism-based.
In data set [13] the test system is Hepatitis B virus. The data set can be described thus: Antiviral activity against HBV transfected in human HB611 cells. The format is functional, organism-based.
Data set [14] can be described thus: Cytotoxicity against human HB611 cells assessed as reduction in cell viability incubated for 6 to 9 days by celltiter-glo assay. In kind it is functional. As to conditions: time 6-9 day. (ATP-based viability assays read luminescence as a measure of living cells.)
Data set [15] relates to Hepatitis B virus. Description: Antiviral activity against HBV infected in human HepG2.2.15.7 cells assessed as reduction in HBV DNA replication by TR-PCR analysis. The format is functional, organism-based.
Data set [16] relates to Hepatitis B virus. The data set can be described thus: Antiviral activity against HBV infected in human Hep38.7-TeT cells assessed as inhibition of extracellular HBV DNA by real-time qPCR analysis. The format is functional, organism-based.
The test system of data set [17] is Hepatitis B virus. Description: Antiviral activity against HBV infected in human HepG2-hNTCP cells assessed as reduction in HBV DNA replication by qRT-PCR analysis. In kind it is functional, organism-based.
Data set [18] is described as follows: Cytotoxicity against human HepG2-hNTCP cells assessed as reduction in cell viability incubated for 3 days by celltiter glo assay. The format is functional. Conditions: 72 h, time 3 day.
Data set [19] can be described thus: Cytotoxicity against human HB611 cells assessed as reduction in cell viability incubated for 3 days by celltiter glo assay. In kind it is functional. As to conditions: HB611, 72 h, time 3 day.

Structures are written as SMILES.

As to `COc1ccccc1CON=C(C)c1c(C)cc(=O)n(O)c1O`, the EC50 (usually the concentration at which the effect is half-maximal) in the data set with Hepatitis B virus [1] was 110 nM.

`CC(=NOCc1ccccc1N)c1c(C)cc(=O)n(O)c1O`: in the data set with Hepatitis B virus [1], the EC50 was 110 nM. Regarding `COc1ccc(CON=C(C)c2c(C)cc(=O)n(O)c2O)cc1`, in the data set with Hepatitis B virus [1], the EC50 worked out at 110 nM. As to `COC(=O)C1C(=O)N(O)C(=O)c2ccccc21` (configuration not stated), the EC50 in the data set with Hepatitis B virus [2] was found to be 690 nM. In the case of `O=C1OCc2cc(O)c(=O)c(O)cc21`, the 50% effective concentration (EC50) in the data set with Hepatitis B virus [3] was 600 nM. Besides, the CC50 (commonly the concentration giving 50% cytotoxicity) in data set [4] was above 100000 nM. Moreover, the CC50 at 1 h in data set [5] and in data set [6] was above 100000 nM in each case. On to `CC(=NOc1ccc(F)cc1)c1c(C)cc(=O)n(O)c1O`, for which, in the data set on Hepatitis B virus [1], the EC50 amounted to 110 nM.

On to `CCNC(=O)C1C(=O)N(O)C(=O)c2ccc(OC)nc21` (configuration not stated), for which the EC50 in the data set on Hepatitis B virus [1] was determined as 2400 nM. `O=C(NCc1ccc(F)cc1)C1C(=O)N(O)C(=O)c2ccc(O)nc21` (configuration not stated): in the data set with Hepatitis B virus [1], the EC50 came out at 2400 nM. With `Cc1ccc(CNC(=O)C2C(=O)N(O)C(=O)c3cc(NC(=O)c4ccccc4)ccc32)cc1` (configuration not stated), in the data set on Hepatitis B virus [2], the EC50 was determined as 690 nM. The same measure, in the same setting: under `COc1ccc(CNC(=O)C2C(=O)N(O)C(=O)c3cc([N+](=O)[O-])ccc32)cc1` (configuration not stated) stands 690 nM. As to `COC(=O)c1c2c(cc(O)c(=O)c1O)COC2=O`, the EC50 in the data set on Hepatitis B virus [3] was 500 nM. In [4], the cytotoxic concentration (CC50) was above 77000 nM. For the same compound, in data set [5], the CC50 at 1 h is above 100000 nM. Regarding `CC(=NOCc1ccc(F)cc1)c1c(C)cc(=O)n(O)c1O`, the EC50 in the data set with Hepatitis B virus [1] was 110 nM. In the case of `N#C/C=C1/C=C[C@@H](O)C[C@H]1O[C@@H]1O[C@H](CO)[C@@H](O)[C@H](O)[C@H]1O`, the Activity with Hepatitis B virus [7] is reported as 62%.

Consider `CC(=NOCc1ccc(C)cc1)c1c(C)cc(=O)n(O)c1O`, for which the EC50 with Hepatitis B virus [1] was 110 nM. As to `O=C(/C=C/c1ccc(O)c(O)c1)NCCc1ccc(O)c(O)c1`, the CC50 in the data set on HepG2 [8] worked out at 229000 nM.

For `C/C=C(\C)C(=O)O[C@H]1C[C@@H](OC(C)=O)[C@@]2(C(=O)OC)CO[C@H]3[C@@H](O)[C@@](C)([C@]45O[C@@]4(C)[C@H]4C[C@@H]5O[C@@H]5OC=C[C@@]54O)[C@H]4[C@]1(CO[C@]4(O)C(=O)OC)[C@@H]32` [AZADIRACTIN], the Activity in the data set on Hepatitis B virus [7] is listed as 62%. The same measure, in the same setting: under `CC(=O)O[C@H]1C(=O)[C@@]2(C)[C@H]([C@H](OC(=O)c3ccccc3)[C@]3(O)C[C@H](O)C(C)=C1C3(C)C)[C@]1(OC(C)=O)CO[C@@H]1C[C@@H]2O` [BACCATIN III] stands 62%. `CC(C)c1ccc(O)c(=O)c(O)c1` [BETA-THUJAPLICINOL]: the CC50 with HepG2 [9] stood at 47000 nM; in the data set with HepG2 [10], 48000 nM.

On to `CCCCCCCCCCCC1=C(O)C(=O)C=C(O)C1=O` [EMBELIN], for which the Activity in the data set with Hepatitis B virus [7] is given as 62%. Turning to `CCCCCCCC/C=C\CCCCCCCC(=O)NCCc1ccc(O)c(O)c1` [OLEOYL DOPAMINE], the IC50 (in general, the concentration that inhibits the measured activity by half) in data set [11] is 410 nM; in the data set with Hepatitis B virus [12], 100 nM. The same compound yielded an EC50 in the data set on Hepatitis B virus [13] of 130 nM. In addition, the half-maximal cytotoxic concentration (CC50) in [14] was 900 nM.

On to `Oc1cc(O)cc(/C=C/c2ccc(O)c(O)c2)c1` [PICEATANNOL], for which the EC50 in the data set with Hepatitis B virus [15] was found to be 96200 nM. Regarding `O=c1ccc2cc3ccoc3cc2o1` [PSORALEN], the Activity with Hepatitis B virus [7] came out at 62%. Still for that read-out and setting: under `O=c1c(O)c(-c2ccc(O)c(O)c2)oc2cc(O)cc(O)c12` [QUERCETIN] stands 62%. Turning to `O=C(/C=C/c1ccc(O)c(O)c1)O[C@H](Cc1ccc(O)c(O)c1)C(=O)O` [ROSMARINIC ACID], the EC50 with Hepatitis B virus [16] was determined as 30000 nM.

With `O=C(/C=C/c1ccc(O)c(O)c1/C=C/c1ccc(O)c(O)c1)O[C@H](Cc1ccc(O)c(O)c1)C(=O)O` [SALVIANOLIC ACID A], the CC50 with HepG2 [8] is 86000 nM. As for `Cc1ccc(C(=O)Nc2ccc(S(=O)(=O)O)c3cc(S(=O)(=O)O)cc(S(=O)(=O)O)c23)cc1NC(=O)c1cccc(NC(=O)Nc2cccc(C(=O)Nc3cc(C(=O)Nc4ccc(S(=O)(=O)O)c5cc(S(=O)(=O)O)cc(S(=O)(=O)O)c45)ccc3C)c2)c1` [SURAMIN], in the data set on Hepatitis B virus [17], the IC50 is 270 nM. The 50% cytotoxic concentration (CC50) was 200000 nM in [18] and 168000 nM in data set [19].
